Source: patent US20090221624A1, “4-AMINOQUINOLINE COMPOUNDS FOR TREATING VIRUS-RELATED CONDITIONS” (priority 2005, published 2009)
Where two headings read alike, the source gives them in different places.

Columns and labels:
WNV (WN-hRuPac cells) = test: WNV antiviral activity, WN-hRuPac cells, Renilla luciferase; assay type: cell-based, West Nile virus; details: for EC50 / inhibition at 25 µM: West Nile virus; for EC50: Secondary Data, WNV, read-out: WNV EC50; for inhibition at 25 µM: primary screening, 25 μM final concentration, 24 hours, percent inhibition of viral replication, read-out: WNV Inh; for WNV TI: therapeutic index CC50/EC50, WNV
SINV (SR19-F-luc cells) = test: SINV antiviral activity, SR19-F-luc cells, Firefly luciferase; assay type: cell-based; details: Sindbis virus; for inhibition at 25 µM: primary screening, 25 μM final concentration, 24 hours, percent inhibition of viral replication, read-out: SINV Inh; for EC50: secondary screening, SR19-F-luc cells
RSV minigenome = test: RSV minigenome-dependent β-galactosidase expression assay (RSV β-Gal); assay type: cell-based, respiratory syncytial virus; details: for EC50: Secondary Data, RSV, read-out: RSV EC50; for inhibition at 25 µM: primary screening, 25 μM final concentration, 24 hours, percent inhibition of viral replication, read-out: RSV Inh; for RSV TI: therapeutic index CC50/EC50, RSV
[1] = tested on: HCV replicon (Clone A cells, Huh7, subgenomic hepatits C virus RNA); test: HCV Neo screening assay (HCV replicon, NPTII ELISA); assay type: cell-based, hepatitis C virus; details: for EC50 / inhibition at 25 µM: Hepatitis C virus, Huh-7; for EC50: Secondary Data, HCV; for inhibition at 25 µM: primary screening, 25 μM final concentration, 24 hours, percent inhibition of viral replication, read-out: HCV Inh; for HCV TI: therapeutic index CC50/EC50, HCV
YFV (YF-hRuPac cells) = test: microbe, parasite or virus in culture; assay type: cell-based, yellow fever virus; details: for inhibition at 25 µM / EC50: Yellow fever virus; for inhibition at 25 µM: 24 h, read-out: YFV Inh; for EC50: read-out: YFV EC50
EBOV minigenome = test: microbe, parasite or virus in culture; assay type: cell-based, Ebola virus; details: for inhibition at 25 µM / EC50: Zaire ebolavirus; for inhibition at 25 µM: 24 h, read-out: EBOV Inh; for EC50: read-out: EBOV EC50
DNG (D2-hRuPac cells) = test: DNG antiviral activity, D2-hRuPac cells, Renilla luciferase; assay type: cell-based, Dengue fever virus; details: Dengue virus, secondary screening
[2] = human respiratory syncytial virus

Compound | EC50 (WNV (WN-hRuPac cells)) [µM] | inhibition at 25 µM (WNV (WN-hRuPac cells)) [%] | WNV TI (WNV (WN-hRuPac cells)) | inhibition at 25 µM (SINV (SR19-F-luc cells)) [%] | EC50 (RSV minigenome; [2]) [µM] | inhibition at 25 µM (RSV minigenome; [2]) [%] | RSV TI (RSV minigenome) | inhibition at 25 µM [1] [%] | YFV TI (YFV (YF-hRuPac cells)) | inhibition at 25 µM (YFV (YF-hRuPac cells)) [%] | EC50 (YFV (YF-hRuPac cells)) [µM] | inhibition at 25 µM (EBOV minigenome) [%] | EC50 (EBOV minigenome) [µM] | CC50 (in vitro; DNG CC50) [µM] | CC50 (in vitro; EBOV CC50) [µM] | CC50 (in vitro; HCV CC50) [µM] | CC50 (in vitro; RSV CC50) [µM] | CC50 (in vitro; SINV CC50) [µM] | CC50 (in vitro; WNV CC50) [µM] | CC50 (in vitro; YFV CC50) [µM] | further results
CCOC(=O)c1cnc2c(Cl)cc(Cl)cc2c1NCc1ccco1 [Compound 52] | 10.8 | 88.9 | 4.08 | 10.2 | 2.51 | 99.1 | 17.57 | 76.5 | 8.84 | 90 | 4.99 | 76.9 | 13.2 | 44.1 | 44.1 | 70.2 | 44.1 | 44.1 | 44.1 | 44.1 | EC50 (SINV (SR19-F-luc cells)): 24.8 µM; EC50 [1]: 12.5 µM; HCV TI [1]: 5.62; EC50 (DNG (D2-hRuPac cells)): 15.8 µM
CCOc1ccc2nc(C)cc(Nc3ccc(Cl)cc3)c2c1 [Compound 59] | 10.9 | 83.7 | 1.94 | 93.5 | 3.26 | 99.7 | 6.5 | 140 | 4.82 | 84.6 | 4.4 | 92.2 | 3.23 | 21.2 | 21.2 | 7.45 | 21.2 | 21.2 | 21.2 | 21.2 | EC50 [1]: 6.07 µM; HCV TI [1]: 1.23
Cc1ccc2nc3c(c(Nc4cccc(C(F)(F)F)c4)c2c1)CCC3 [Compound 26] | 3.71 | 62.2 | 14.32 | 53.3 | 4.1 | 99.9 | 12.95 | 148 | 8.88 | 77.2 | 5.98 | 38.8 | 75 | 53.1 | 53.1 | 8.35 | 53.1 | 53.1 | 53.1 | 53.1 | EC50 (SINV (SR19-F-luc cells)): 18.5 µM; EC50 [1]: 7.57 µM; HCV TI [1]: 1.1; EC50 (DNG (D2-hRuPac cells)): 48.2 µM
COc1ccccc1Nc1cc(C)nc2c(C)c(C)cc(N)c12 [Compound 77] | – | – | – | – | – | – | 11.07 | – | – | – | – | – | 75 | 52.6 | 52.6 | – | 52.6 | 52.6 | 52.6 | 52.6 | EC50 (RSV minigenome): 4.75 µM; EBOV Inh (EBOV minigenome): 94.37%
CCOC(=O)c1cnc2c(OC)cccc2c1NCc1ccco1 [Compound 67] | – | 33.5 | – | 68 | 1.2 | 98.3 | 24.88 | 5.39 | – | 70.7 | – | 86.6 | 20.1 | 29.9 | 29.9 | – | 29.9 | 29.9 | 29.9 | 29.9 | –
Cc1cccc(Nc2c3c(nc4ccccc24)CCC3)c1 [Compound 11] | 9.79 | 75 | 2.94 | 81.7 | 2.9 | 99.5 | 9.91 | 143 | 5.74 | 79.1 | 5.01 | 62.7 | 25.9 | 28.8 | 28.8 | 9.67 | 28.8 | 28.8 | 28.8 | 28.8 | EC50 (SINV (SR19-F-luc cells)): 2.8 µM; EC50 [1]: 3.37 µM; HCV TI [1]: 2.87
Cc1cc(NNC(=O)OCc2ccccc2)c2ccccc2n1 [Compound 78] | ≥ 75 | – | 0.68 | – | 1.38 | – | 37.03 | – | 2.95 | – | 17.3 | 42.3 | 75 | 51.1 | 51.1 | ≥ 75 | 51.1 | 51.1 | 51.1 | 51.1 | EC50 (SINV (SR19-F-luc cells)): 7.54 µM; EC50 (DNG (D2-hRuPac cells)): 57 µM
CCOC(=O)c1cnc2c(OC)cccc2c1NCc1cccnc1 [Compound 68] | – | 49.7 | – | 72.8 | 3 | 98.9 | 17 | 44.7 | – | 71.8 | – | 74.5 | 68.7 | 51 | 51 | – | 51 | 51 | 51 | 51 | –
Cc1cc(Nc2ccc(C)c(Cl)c2)c2cccc(C)c2n1 [Compound 50] | 6.3 | 82 | 10.51 | 65.8 | 6.76 | 85.5 | 9.79 | 138 | 19.41 | 92.2 | 3.41 | 42.6 | – | 66.2 | 66.2 | 7.32 | 66.2 | 66.2 | 66.2 | 66.2 | EC50 [1]: 8.62 µM; HCV TI [1]: 0.85
CCOC(=O)c1cnc2c(OC)cccc2c1NCCCO [Compound 70] | – | 14.6 | – | 64.5 | 3.02 | 95.8 | 15.15 | 55.6 | – | 62.6 | – | 74.7 | 69.7 | 45.8 | 45.8 | ≥ 75 | 45.8 | 45.8 | 45.8 | 45.8 | –
Cc1ccc(Nc2cc(C)nc3ccc(C)cc23)cc1 [Compound 6] | 38.7 | 79.1 | 0.91 | 76.8 | 9.86 | 91.2 | 3.57 | 187 | 2.73 | 77.7 | 12.9 | 42.7 | – | 35.2 | 35.2 | 11.7 | 35.2 | 35.2 | 35.2 | 35.2 | EC50 (SINV (SR19-F-luc cells)): 2.3 µM; EC50 [1]: 14 µM; HCV TI [1]: 0.84
CCOC(=O)c1cnc2c(Cl)c(Cl)ccc2c1NCc1ccco1 [Compound 19] | 3.98 | 80.6 | 5.25 | 11.9 | 1.77 | 82.3 | 11.81 | 50.9 | 7.98 | 93.2 | 2.62 | 0.97 | 75 | 20.9 | 20.9 | – | 20.9 | 20.9 | 20.9 | 20.9 | –
Cc1ccc(Nc2c3c(nc4ccc(C)cc24)CCC3)cc1 [Compound 28] | 17.4 | 75.2 | 2.52 | 81.3 | 4.58 | 93.7 | 9.56 | 155 | 6.45 | 75 | 6.79 | 19.2 | – | 43.8 | 43.8 | 6.82 | 43.8 | 43.8 | 43.8 | 43.8 | EC50 (SINV (SR19-F-luc cells)): 2.73 µM; EC50 [1]: 7.47 µM; HCV TI [1]: 0.91
CCOC(=O)c1cnc2c(OC)cccc2c1NCc1ccccc1 [Compound 62] | – | 67.7 | – | 81.3 | 3.73 | 99 | 11.66 | -5.83 | – | 76.6 | – | 97.4 | 75 | 43.5 | 43.5 | – | 43.5 | 43.5 | 43.5 | 43.5 | –
